Structures can show the parent of a compound that is named as a salt.
biological target: phosphorylated Btk at Tyr223 in Ramos cells (Homo sapiens (Human), UniProt Q06187); assay: Btk pY223 cellular assay (HTRF) in Ramos cells; format: cell-based; conditions: 1 hour compound incubation, pervanadate or Na3VO4 stimulation
Sequence (Q06187 whole entry): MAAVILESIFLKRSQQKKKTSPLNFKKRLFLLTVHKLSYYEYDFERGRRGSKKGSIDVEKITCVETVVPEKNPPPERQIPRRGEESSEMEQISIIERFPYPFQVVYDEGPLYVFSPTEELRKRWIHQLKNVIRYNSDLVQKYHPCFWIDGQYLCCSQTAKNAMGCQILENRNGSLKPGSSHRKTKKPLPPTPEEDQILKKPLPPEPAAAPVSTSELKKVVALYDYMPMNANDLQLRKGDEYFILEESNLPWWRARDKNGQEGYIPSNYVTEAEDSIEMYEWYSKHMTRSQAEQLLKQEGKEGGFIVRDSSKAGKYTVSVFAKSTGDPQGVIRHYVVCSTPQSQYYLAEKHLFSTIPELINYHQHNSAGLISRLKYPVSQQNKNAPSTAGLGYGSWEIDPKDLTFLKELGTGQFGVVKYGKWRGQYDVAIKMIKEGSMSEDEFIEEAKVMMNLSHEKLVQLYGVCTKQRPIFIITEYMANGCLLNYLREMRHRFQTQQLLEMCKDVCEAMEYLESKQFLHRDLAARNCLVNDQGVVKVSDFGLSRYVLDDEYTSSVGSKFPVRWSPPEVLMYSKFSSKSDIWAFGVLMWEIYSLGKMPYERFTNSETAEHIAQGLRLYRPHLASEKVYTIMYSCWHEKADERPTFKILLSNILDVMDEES
Method: Btk pY223 cellular assay is a HTRF based assay intended to determine the endogenous levels of phosphorylated Btk at Tyr223.
Briefly, Ramos cells were serum starved in 0.5% FBS-containing RPMI1640 for 2 hours. Following starvation, the cells were incubated with compounds to be detected at various concentrations in a CO2 incubator for 1 hour. After incubation, cells were stimulated with 1 mM pervanadate (PV) or Na3VO4 (OV) for 20 min. Then, the cells were spinned down and lysed with 1× lysis buffer at RT for 10 min (4× lysis buffer supplied in the kit). During the incubation, 1× antibody mix was prepared by diluting anti-Btk-d2 and anti-pBtk-K in detection buffer (supplied in the kit). […] After that, 18 ul of cell lysate was transferred to the assay plate pre-loaded with antibody solution. After mixing gently and spinning briefly, the plate was sealed up and kept in dark at RT for 18 hours. […] IC50 values were calculated with GraphPad Prism software using the sigmoidal dose-response function.

In order of rising IC50:
1. C=CC(=O)Nc1ccccc1C1CCNc2c(C(N)=O)c(-c3ccc(Cl)c(OC)c3)nn21 (stereo not drawn) [Compound 160, 7-(2-Acrylamidophenyl)-2-(4-chloro-3-methoxyphenyl)-4,5,6,7-tetrahydropyrazolo[1,5-a]pyrimidine-3-carboxamide]  1.3 nM
2. C=CC(=O)Nc1ccccc1C1CCNc2c(C(N)=O)c(-c3ccc(Cl)c(F)c3)nn21 (stereo not drawn) [Compound 154, 7-(2-Acrylamidophenyl)-2-(4-chloro-3-fluorophenyl)-4,5,6,7-tetrahydropyrazolo[1,5-a]pyrimidine-3-carboxamide]  1.5 nM
3. C=CC(=O)Nc1ccccc1C1CCNc2c(C(N)=O)c(-c3ccc(F)c(Br)c3)nn21 (stereo not drawn) [Compound 152, 7-(2-Acrylamidophenyl)-2-(3-bromo-4-fluorophenyl)-4,5,6,7-tetrahydropyrazolo[1,5-a]pyrimidine-3-carboxamide]  1.8 nM
4. C=CC(=O)N1CC(C2CCNc3c(C(N)=O)c(-c4ccc(Oc5ccccc5C#N)cc4)nn32)C1 (stereo not drawn) [Compound 135, 7-(1-acryloylazetidin-3-yl)-2-(4-(2-cyanophenoxy)phenyl)-4,5,6,7-tetrahydropyrazolo[1,5-a]pyrimidine-3-carboxamide]  2.4 nM
5. C=CC(=O)N1CC(C2CCNc3c(C(N)=O)c(-c4ccc(Oc5ccccc5)c(Cl)c4)nn32)C1 (stereo not drawn) [Compound 139, 7-(1-acryloylazetidin-3-yl)-2-(3-chloro-4-phenoxyphenyl)-4,5,6,7-tetrahydropyrazolo[1,5-a]pyrimidine-3-carboxamide]  3.1 nM
6. C=CC(=O)Nc1ccccc1C1CCNc2c(C(N)=O)c(-c3ccc(C(F)(F)F)c(Cl)c3)nn21 (stereo not drawn) [Compound 162, 7-(2-Acrylamidophenyl)-2-(3-chloro-4-(trifluoromethyl)phenyl)-4,5,6,7-tetrahydropyrazolo[1,5-a]pyrimidine-3-carboxamide]  3.2 nM
7. C=CC(=O)Nc1ccccc1C1CCNc2c(C(N)=O)c(-c3ccc(OCc4ccccn4)c(Cl)c3)nn21 (stereo not drawn) [Compound 146, 7-(2-Acrylamido-phenyl)-2-(3-chloro-4-(pyridin-2-ylmethoxy)phenyl)-4,5,6,7-tetrahydropyrazolo[1,5-a]pyrimidine-3-carboxamide]  4 nM
8. C=CC(=O)NCC1(C)CCNc2c(C(N)=O)c(-c3ccc(Oc4ccccc4)cc3)nn21 (stereo not drawn) [Compound 143, 7-(acrylamidomethyl)-7-methyl-2-(4-phenoxyphenyl)-4,5,6,7-tetrahydropyrazolo[1,5-a]pyrimidine-3-carboxamide]  4.1 nM
9. C=CC(=O)NCC1CNc2c(C(N)=O)c(-c3ccc(Oc4ccccc4)cc3)nn2C1 (stereo not drawn) [Compound 86, 6-(Acrylamidomethyl)-2-(4-phenoxyphenyl)-4,5,6,7-tetrahydro pyrazolo[1,5-a]pyrimidine-3-carboxamide]  4.4 nM
10. CC=CC(=O)N1CCc2[nH]c3c(C(N)=O)c(-c4ccc(Oc5ccccc5)cc4)nn3c2C1 [Compound 58, 7-(But-2-enoyl)-2-(4-phenoxyphenyl)-5,6,7,8-tetrahydro-4H-pyrazolo[5′,1′:2,3]imidazo[4,5-c]pyridine-3-carboxamide]  4.6 nM
11. CN(C)C/C=C/C(=O)N1CCCc2[nH]c3c(C(N)=O)c(-c4ccc(Oc5ccccc5)cc4)nn3c2C1 [Compound 124, (E)-8-(4-(dimethylamino)but-2-enoyl)-2-(4-phenoxyphenyl)-4,5,6,7,8,9-hexahydropyrazolo-[5′,1′:2,3]-imidazo[4,5-c]azepine-3-carboxamide]  4.6 nM
12. CN(C)C/C=C/C(=O)N1CCc2c([nH]c3c(C(N)=O)c(-c4ccc(Oc5ccccc5)cc4)nn23)C1 [Compound 64, (E)-6-(4-(Dimethylamino)but-2-enoyl)-2-(4-phenoxyphenyl)-5,6,7,8-tetrahydro-4H-pyrazolo[1′,5′:1,2]imidazo[4,5-c]pyridine-3-carboxamide trifluoroacetate]  4.8 nM
13. C=CC(=O)N1CC(C2CCNc3c(C(N)=O)c(-c4ccc(Oc5ccc(Cl)c(Cl)c5)cc4)nn32)C1 (stereo not drawn) [Compound 132, 7-(1-acryloylazetidin-3-yl)-2-(4-(3,4-dichlorophenoxy)phenyl)-4,5,6,7-tetrahydropyrazolo[1,5-a]pyrimidine-3-carboxamide]  6.2 nM
14. C=CC(=O)Nc1ccccc1C1CCNc2c(C(N)=O)c(-c3ccc(Cl)c(Cl)c3)nn21 (stereo not drawn) [Compound 156, 7-(2-Acrylamidophenyl)-2-(3,4-dichlorophenyl)-4,5,6,7-tetrahydropyrazolo-[1,5-a]pyrimidine-3-carboxamide]  6.8 nM
15. CN(C)C/C=C/C(=O)Nc1ccccc1C1CCNc2c(C(N)=O)c(-c3ccc(Oc4ccccc4)cc3)nn21 (stereo not drawn) [Compound 92, (E)-7-(2-(4-(dimethylamino)but-2-enamido)-phenyl)-2-(4-phenoxyphenyl)-4,5,6,7-tetrahydropyrazolo-[1,5-a]pyrimidine-3-carboxamide]  7 nM
16. C=CC(=O)N1CCC(C2(C)CCNc3c(C(N)=O)c(-c4ccc(Oc5ccccc5)cc4)nn32)CC1 (stereo not drawn) [Compound 138, 7-(1-acryloylpiperidin-4-yl)-7-methyl-2-(4-phenoxyphenyl)-4,5,6,7-tetrahydropyrazolo[1,5-a]pyrimidine-3-carboxamide]  7.6 nM
17. C=CC(=O)N(C)CC1CCNc2c(C(N)=O)c(-c3ccc(Oc4ccccc4)cc3)nn21 (stereo not drawn) [Compound 35]  7.9 nM
18. C=CC(=O)N1CC(C2CCNc3c(C(N)=O)c(-c4ccc(Oc5cccc(Cl)c5)cc4)nn32)C1 (stereo not drawn) [Compound 107, 7-(1-acryloylazetidin-3-yl)-2-(4-(3-chlorophenoxy)phenyl)-4,5,6,7-tetrahydropyrazolo[1,5-a]pyrimidine-3-carboxamide]  11.2 nM
19. CN(C)C/C=C/C(=O)N1CCc2[nH]c3c(C(N)=O)c(-c4ccc(Oc5ccccc5)cc4)nn3c2CC1 [Compound 122, (E)-7-(4-(dimethylamino)but-2-enoyl)-2-(4-phenoxyphenyl)-4,5,6,7,8,9-hexahydropyrazolo-[1′,5′:1,2]-imidazo[4,5-d]azepine-3-carboxamide]  12.6 nM
20. C=CC(=O)N1CCCC1C1CCNc2c(C(N)=O)c(-c3ccc(Oc4ccccc4)cc3)nn21 (stereo not drawn) [Compound 103, 7-(1-acryloylpyrrolidin-2-yl)-2-(4-phenoxyphenyl)-4,5,6,7-tetrahydropyrazolo-[1,5-a]pyrimidine-3-carboxamide]  14 nM
21. C=CC(=O)Nc1ccccc1C1CCNc2c(C(N)=O)c(-c3ccc(F)c(C)c3)nn21 (stereo not drawn) [Compound 157, 7-(2-Acrylamidophenyl)-2-(4-fluoro-3-methylphenyl)-4,5,6,7-tetrahydropyrazolo[1,5-a]pyrimidine-3-carboxamide]  20 nM
22. C=CC(=O)N1CC(C2CCNc3c(C(N)=O)c(-c4ccc(OCc5ccccc5)cc4)nn32)C1 (stereo not drawn) [Compound 104, 7-(1-acryloylazetidin-3-yl)-2-(4-(benzyloxy)phenyl)-4,5,6,7-tetrahydropyrazolo-[1,5-a]pyrimidine-3-carboxamide]  20.6 nM
23. C=CC(=O)N1CC2(CNc3c(C(N)=O)c(-c4ccc(Oc5ccccc5)cc4)nn32)C1 [Compound 46, 1-Acryloyl-6′-(4-phenoxyphenyl)-1′,2′-dihydrospiro[azetidine-3,3′-imidazo[1,2-b]pyrazole]-7′-carboxamide]  22.6 nM
24. C=CC(=O)Nc1ccccc1C1CCNc2c(C(N)=O)c(-c3ccc(F)c(F)c3)nn21 (stereo not drawn) [Compound 137, 7-(2-acrylamidophenyl)-2-(3,4-difluorophenyl)-4,5,6,7-tetrahydropyrazolo[1,5-a]pyrimidine-3-carboxamide]  22.7 nM
25. C=CC(=O)Nc1ccccc1C1CCNc2c(C(N)=O)c(-c3ccc(Oc4ccc(F)cc4)cc3)nn21 (stereo not drawn) [Compound 12, 7-(2-Acrylamidophenyl)-2-(4-(4-fluorophenoxyl)phenyl)-4,5,6,7-tetrahydropyrazolo[1,5-a]pyrimidine-3-carboxamide]  23.6 nM
26. C=CC(=O)N1CC(C2CCNc3c(C(N)=O)c(-c4ccc(Oc5ccc(Cl)cc5)cc4)nn32)C1 (stereo not drawn) [Compound 106, 7-(1-acryloylazetidin-3-yl)-2-(4-(4-chlorophenoxy)-phenyl)-4,5,6,7-tetrahydropyrazolo[1,5-a]pyrimidine-3-carboxamide]  30.3 nM
27. C=CC(=O)Nc1ccc2c(c1)-n1nc(-c3ccc(Oc4ccccc4)cc3)c(C(N)=O)c1NC2 [Compound 69, 8-Acrylamido-2-(4-phenoxyphenyl)-4,5-dihydropyrazolo[1,5-a]quinazoline-3-carboxamide]  34.4 nM
28. C=CC(=O)NC1CNc2c(C(N)=O)c(-c3ccc(Oc4ccccc4)cc3)nn2C1 (stereo not drawn) [Compound 85, 6-Acrylamido-2-(4-phenoxyphenyl)-4,5,6,7-tetrahydropyrazolo[1,5-a]pyrimidine-3-carboxamide]  73.2 nM
29. C=CC(=O)N1CCC2(CCNc3c(C(N)=O)c(-c4ccc(Oc5ccccc5)cc4)nn32)CC1 [Compound 43, 1-Acryloyl-2′-(4-phenoxyphenyl)-5′,6′-dihydro-4′H-spiro[piperidine-4,7′-pyrazolo[1,5-a]pyrimidine]-3′-carboxamide]  75.8 nM
30. C=CC(=O)Nc1ccc2c(c1)c(=O)[nH]c1c(C(N)=O)c(-c3ccc(Oc4ccccc4)cc3)nn12 [Compound 78, 7-Acrylamido-5-oxo-2-(4-phenoxyphenyl)-4,5-dihydropyrazolo[1,5-a]quinazoline-3-carboxamide]  140 nM
31. NC(=O)c1c(-c2ccc(F)c(Cl)c2)nn2c1NCCC2c1ccccc1NC(=O)/C=C/CN1CCCCC1 (stereo not drawn) [Compound 153, (E)-2-(3-Chloro-4-fluorophenyl)-7-(2-(4-(piperidin-1-yl)but-2-enamido)phenyl)-4,5,6,7-tetrahydropyrazolo-[1,5-a]pyrimidine-3-carboxamide]  165 nM
32. C=CC(=O)Nc1ccc2c(c1)CC(=O)Nc1c(C(N)=O)c(-c3ccc(Oc4ccccc4)cc3)nn1-2 [Compound 75, 8-Acrylamido-5-oxo-2-(4-phenoxyphenyl)-5,6-dihydro-4H-benzo[f]pyrazolo[1,5-a][1,3]diazepine-3-carboxamide]  223 nM
33. CN(C)CCC(=O)N1CCc2[nH]c3c(C(N)=O)c(-c4ccc(Oc5ccccc5)cc4)nn3c2C1 [Compound 57, 7-(3-(Dimethylamino)propanoyl)-2-(4-phenoxyphenyl)-5,6,7,8-tetrahydro-4H-pyrazolo[5′,1′:2,3]imidazo[4,5-c]pyridine-3-carboxamide trifluoroacetate]  233 nM

Source: patent publication US9447106B2, “Substituted pyrazolo[1,5-a]pyrimidines as bruton's tyrosine kinase modulators” (Beigene, Ltd., priority 2013, dated 2016)
